Key:
[1] = molecular target: T1, Retinoic acid receptor RXR-alpha (Homo sapiens, UniProt P19793); experiment: Effective concentration required for agonistic activity in CV-1 cells expressing RXR-alpha; type: functional, cell-based, Cercopithecidae
T1 sequence (P19793 whole entry): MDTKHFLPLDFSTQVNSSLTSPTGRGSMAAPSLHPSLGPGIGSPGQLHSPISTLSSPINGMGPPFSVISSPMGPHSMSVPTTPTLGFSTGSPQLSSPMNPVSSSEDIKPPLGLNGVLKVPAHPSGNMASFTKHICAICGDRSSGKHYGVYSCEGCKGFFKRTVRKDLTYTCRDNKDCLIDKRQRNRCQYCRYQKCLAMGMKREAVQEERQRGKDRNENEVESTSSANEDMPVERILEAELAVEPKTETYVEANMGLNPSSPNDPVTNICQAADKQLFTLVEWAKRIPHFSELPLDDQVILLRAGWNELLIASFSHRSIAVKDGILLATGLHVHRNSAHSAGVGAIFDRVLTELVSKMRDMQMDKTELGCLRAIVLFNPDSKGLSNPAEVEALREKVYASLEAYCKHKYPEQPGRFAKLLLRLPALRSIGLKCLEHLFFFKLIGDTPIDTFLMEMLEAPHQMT

[2] = molecular target: T1, Retinoic acid receptor RXR-alpha; experiment: Ability to displace [3H]9-cis-RA from Retinoid X receptor alpha in CV-1 cells; type: cell-based, Cercopithecidae
[3] = molecular target: T2, Retinoic acid receptor gamma (Homo sapiens, UniProt P13631); experiment: Ability to displace [3H]ATRA from Retinoic acid receptor gamma in CV-1 cells; type: cell-based, Cercopithecidae
T2 sequence (P13631 whole entry): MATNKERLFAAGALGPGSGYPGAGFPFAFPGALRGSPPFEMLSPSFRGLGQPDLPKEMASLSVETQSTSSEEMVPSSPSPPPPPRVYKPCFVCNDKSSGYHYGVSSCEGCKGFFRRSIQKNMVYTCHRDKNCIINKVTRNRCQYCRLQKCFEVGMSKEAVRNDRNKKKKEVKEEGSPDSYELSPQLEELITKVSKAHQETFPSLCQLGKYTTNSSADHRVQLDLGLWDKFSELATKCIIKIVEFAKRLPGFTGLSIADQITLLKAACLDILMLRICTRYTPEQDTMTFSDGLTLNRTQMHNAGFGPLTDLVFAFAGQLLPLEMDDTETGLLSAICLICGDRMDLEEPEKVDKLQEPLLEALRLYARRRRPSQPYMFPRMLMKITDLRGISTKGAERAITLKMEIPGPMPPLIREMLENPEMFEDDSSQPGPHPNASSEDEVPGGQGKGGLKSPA

Cercopithecidae = experiment: RAR agonist synergy calculated using 3 nM of TTNPB; type: functional
[4] = molecular target: T1, Retinoic acid receptor RXR-alpha; experiment: Effective concentration for antagonistic activity against RXR-alpha expressed in CV-1 cells; type: functional, cell-based, Cercopithecidae
[5] = molecular target: T3, Retinoic acid receptor RXR-alpha (Homo sapiens) (UniProt P19793); experiment: Agonistic efficacy in CV-1 cells (LGD1069 was used as reference); type: functional, cell-based; conditions: Cercopithecidae
T3 sequence (whole entry): T1 sequence (P19793 whole entry)

[6] = molecular target: T3, Retinoic acid receptor RXR-alpha (Homo sapiens); experiment: Antagonistic efficacy in CV-1 cells (LGD1069 was used as reference); type: functional, cell-based; conditions: Cercopithecidae
[7] = molecular target: T4, Peroxisome proliferator-activated receptor gamma (Homo sapiens) (UniProt P37231); experiment: Ratio between effective concentrations (Agonist) in PPAR gamma; type: functional; conditions: Cercopithecidae
T4 sequence (whole entry): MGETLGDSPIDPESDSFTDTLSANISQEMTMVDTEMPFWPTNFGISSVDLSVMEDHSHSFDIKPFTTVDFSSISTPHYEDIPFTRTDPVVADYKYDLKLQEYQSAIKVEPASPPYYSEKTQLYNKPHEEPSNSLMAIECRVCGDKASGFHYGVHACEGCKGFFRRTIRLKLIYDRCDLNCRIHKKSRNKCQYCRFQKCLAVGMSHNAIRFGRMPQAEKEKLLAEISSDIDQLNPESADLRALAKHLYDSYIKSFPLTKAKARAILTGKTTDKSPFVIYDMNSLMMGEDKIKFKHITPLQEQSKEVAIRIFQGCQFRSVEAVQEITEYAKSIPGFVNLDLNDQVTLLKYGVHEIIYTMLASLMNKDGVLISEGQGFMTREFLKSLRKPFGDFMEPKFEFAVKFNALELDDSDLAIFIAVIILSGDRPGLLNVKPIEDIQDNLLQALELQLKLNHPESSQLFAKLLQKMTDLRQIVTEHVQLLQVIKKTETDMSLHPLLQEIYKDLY

[8] = molecular target: T4, Peroxisome proliferator-activated receptor gamma (Homo sapiens); experiment: Ratio between agonistic efficacy in PPAR gamma; type: functional; conditions: Cercopithecidae

Compound | EC50 [1] | Ki [2] | Ki [3] | Synergy (Cercopithecidae) | EC50 [4] | Efficacy [5] | Efficacy [6] | Ratio [7] | Ratio [8]
CCOc1c(-c2n[nH]c3ccc(/C(C)=C/C(=O)O)cc23)cc(C(C)C)cc1C(C)C | 235 nM | 69.2 nM | > 10000 nM | – | – | – | – | – | –
C/C(=C/C=C/C(C)=C/C(=O)O)c1cc(C(C)(C)C)cc(C(C)(C)C)c1OCCCF | – | 2.7 nM | > 10000 nM | 1.4 | 6.4 nM | 4% | 84% | 3.1 | 60
C/C(=C\C(=O)O)c1ccc2scc(-c3cc(C(C)C)cc(C(C)C)c3OCCCF)c2c1 | – | 395 nM | > 10000 nM | 1.5 | 4150 nM | 1.78% | 48% | 1480 | 123
CCCCOc1c(-c2c[nH]c3ccc(/C(C)=C/C(=O)O)cc23)cc(C(C)(C)C)cc1C(C)(C)C | – | 3.2 nM | > 10000 nM | 2.3 | 26.4 nM | 1% | 93% | 8.9 | 105
CCOc1c(-c2noc3ccc(/C(C)=C/C(=O)O)cc23)cc(C(C)C)cc1C(C)C | 1020 nM | 648 nM | > 10000 nM | 1.7 | – | 36% | 24% | 306 | 65
CCOc1c(\C(C)=C/C=C/C(C)=C/C(=O)O)cc(C(C)C)cc1C(C)C | – | – | > 10000 nM | 5 | – | 58% | 7% | 8 | 38
CCCCOc1c(-c2cccc3[nH]c(/C(C)=C/C(=O)O)cc23)cc(C(C)C)cc1C(C)C | – | – | – | 1.1 | 3980 nM | 0.51% | 64% | 893 | 24.9
CCOc1c(-c2csc3cnc(/C(C)=C/C(=O)O)cc23)cc(C(C)C)cc1C(C)C | 1440 nM | – | – | 2 | – | 15.1% | 9% | 347 | 127
CCOc1c(-c2[nH]nc3ccc(/C(C)=C/C(=O)O)cc23)cc(C(C)C)cc1C(C)C | – | – | – | 2.4 | – | 43% | 7% | 118 | 168
CCOc1c(-c2cnc3ccc(/C(C)=C/C(=O)O)cn23)cc(C(C)C)cc1C(C)C | – | 2080 nM | > 10000 nM | 1.5 | – | 7.93% | 9% | 425 | 81.8
CCCCOc1c(-c2cn(C)c3ccc(/C(C)=C/C(=O)O)cc23)cc(C(C)C)cc1C(C)C | – | 740 nM | > 10000 nM | 2.5 | 1530 nM | 2.52% | 86% | 612 | 49
CCCCOc1c(-c2c[nH]c3ccc(/C(C)=C/C(=O)O)cc23)cc(C(C)C)cc1C(C)C | – | 7.4 nM | > 10000 nM | 1.3 | 21.1 nM | 1.7% | 87% | 15 | 256
COc1c(-c2csc3ccc(/C(C)=C/C(=O)O)cc23)cc(C(C)C)cc1C(C)C | 914 nM | 29.6 nM | > 10000 nM | 2.7 | – | 65.4% | 0% | 224 | 114
C/C(=C\C(=O)O)c1ccc2scc(-c3cc(C(C)C)cc(C(C)C)c3O)c2c1 | 1440 nM | 131 nM | > 10000 nM | 3.5 | – | 37.4% | 0% | 384 | 112
CCCCOc1c(\C(C)=C/C=C/C(C)=C/C(=O)O)cc(C(C)C)cc1C(C)C | – | – | > 10000 nM | 1 | 4 nM | 2% | 91% | 1890 | 12
C/C(=C\C(=O)O)c1ccc2[nH]cc(-c3cc(C(C)(C)C)cc(C(C)(C)C)c3OCC(F)F)c2c1 | 65 nM | 1.6 nM | > 10000 nM | 3 | 66.3 nM | 15% | 41% | 21.9 | 233
CCCOc1c(-c2c[nH]c3ccc(/C(C)=C/C(=O)O)cc23)cc(C(C)(C)C)cc1C(C)(C)C | – | 1.6 nM | > 10000 nM | 3.4 | 30.1 nM | 7% | 81% | 7 | 173

From ChEMBL document CHEMBL1149237, “Design and synthesis of benzofused heterocyclic RXR modulators” (Bioorg Med Chem Lett, 2004)
